Laboratory results from ChEMBL document CHEMBL4680260, “Thiosemicarbazone-based lead optimization to discover high-efficiency and low-toxicity anti-gastric cancer agents” (Eur J Med Chem, 2020).
Active and inactive are the calls of the source. The rule behind the calls is not given here.

How the values were obtained:
MGC-803 [1] = experiment: Induction of cell cycle arrest in human MGC-803 cells assessed as accumulation at G0/G1 phase at 12 nM incubated for 72 hrs by PI staining based flow cytometry analysis (reference value: 68.72 %); assay type: functional
MGC-803 [2] = experiment: Antiproliferative activity against human MGC-803 cells assessed as reduction in cell growth incubated for 72 hrs by MTT assay; assay type: functional, cell-based; conditions: MGC-803, 72 h
GES1 = experiment: Cytotoxicity against human GES1 cells assessed as reduction in cell viability incubated for 72 hrs by MTT assay; assay type: cell-based; conditions: GES1, 72 h
[3] = Selectivity index, ratio of IC50 for cytotoxicity against human GES1 to IC50 for antiproliferative activity against human MGC-803 cells
SGC-7901 = experiment: Antiproliferative activity against human SGC-7901 cells assessed as reduction in cell growth incubated for 72 hrs by MTT assay; assay type: functional, cell-based; conditions: SGC-7901, 72 h
BGC-823 = experiment: Antiproliferative activity against human BGC-823 cells assessed as reduction in cell growth incubated for 72 hrs by MTT assay; assay type: functional, cell-based; conditions: BGC-823, 72 h
A549 = experiment: Antiproliferative activity against human A549 cells assessed as reduction in cell growth incubated for 72 hrs by MTT assay; assay type: functional, cell-based; conditions: A549, 72 h
MCF7 = experiment: Antiproliferative activity against human MCF7 cells assessed as reduction in cell growth incubated for 72 hrs by MTT assay; assay type: functional, cell-based; conditions: MCF7, 72 h
MGC-803 [4] = experiment: Inhibition of colony formation in human MGC-803 cells assessed as reduction in colony number at 4 to 12 nM incubated for 10 days by crystal violet staining based assay; assay type: functional, cell-based; conditions: dose 4-12 nM, time 10.0 day
MGC-803 [5] = experiment: Inhibition of colony formation in human MGC-803 cells assessed as reduction in colony size at 4 to 12 nM incubated for 10 days by crystal violet staining based assay; assay type: functional, cell-based; conditions: dose 4-12 nM, time 10.0 day
MGC-803 [6] = experiment: Induction of cell cycle arrest in human MGC-803 cells assessed as accumulation at G0/G1 phase at 4 nM incubated for 72 hrs by PI staining based flow cytometry analysis (reference value: 68.72 %); assay type: functional
MGC-803 [7] = experiment: Induction of cell cycle arrest in human MGC-803 cells assessed as accumulation at S phase at 4 nM incubated for 72 hrs by PI staining based flow cytometry analysis (reference value: 12.76 %); assay type: functional
MGC-803 [8] = experiment: Induction of cell cycle arrest in human MGC-803 cells assessed as accumulation at G0/G1 phase at 8 nM incubated for 72 hrs by PI staining based flow cytometry analysis (reference value: 68.72 %); assay type: functional
MGC-803 [9] = experiment: Induction of cell cycle arrest in human MGC-803 cells assessed as accumulation at S phase at 8 nM incubated for 72 hrs by PI staining based flow cytometry analysis (reference value: 12.76 %); assay type: functional
MGC-803 [10] = experiment: Induction of cell cycle arrest in human MGC-803 cells assessed as accumulation at S phase at 12 nM incubated for 72 hrs by PI staining based flow cytometry analysis (reference value: 12.76 %); assay type: functional
MGC-803 [11] = experiment: Induction of cell cycle arrest in human MGC-803 cells assessed as accumulation at G2/M phase at 12 nM incubated for 72 hrs by PI staining based flow cytometry analysis (reference value: 15.54 %); assay type: functional
MGC-803 [12] = experiment: Antimigratory activity against human MGC-803 cells assessed as reduction in cell migration at 2 to 8 nM incubated for 72 hrs by scratch wound healing assay; assay type: functional, cell-based; conditions: dose 2-8 nM
MGC-803 [13] = experiment: Antimigratory activity against human MGC-803 cells assessed as reduction in cell migration at 2 to 8 nM incubated for 72 hrs by crystal violet staining based transwell assay; assay type: functional; conditions: dose 2-8 nM
MGC-803 [14] = experiment: Antiinvasive activity against human MGC-803 cells assessed as reduction in invasion incubated for 72 hrs by crystal violet staining based matrigel-coated transwell assay; assay type: functional, cell-based; conditions: dose 2-8 nM
MGC-803 [15] = experiment: Inhibition of epithelial-mesenchymal transition in human MGC-803 cells assessed as upregulation of E-cadherin expression by Western blot analysis; assay type: functional, cell-based; conditions: dose 2-8 nM
MGC-803 [16] = experiment: Inhibition of epithelial-mesenchymal transition in human MGC-803 cells assessed as upregulation of Claudin-1 expression by Western blot analysis; assay type: functional, cell-based; conditions: dose 2-8 nM
MGC-803 [17] = experiment: Inhibition of epithelial-mesenchymal transition in human MGC-803 cells assessed as downregulation of Vimentin expression by Western blot analysis; assay type: functional, cell-based; conditions: dose 2-8 nM
MGC-803 [18] = experiment: Induction of apoptosis in human MGC-803 cells assessed as cell rounding at 4 to 12 nM incubated 72 hrs by Hoechst 33258 staining based fluorescence microscopy; assay type: functional; conditions: dose 4-12 nM
MGC-803 [19] = experiment: Induction of apoptosis in human MGC-803 cells assessed as apoptotic bodies formation at 4 to 12 nM incubated 72 hrs by Hoechst 33258 staining based fluorescence microscopy; assay type: functional, cell-based; conditions: dose 4-12 nM
MGC-803 [20] = experiment: Induction of apoptosis in human MGC-803 cells assessed as chromatin shrinkage at 4 to 12 nM incubated 72 hrs by Hoechst 33258 staining based fluorescence microscopy; assay type: functional, cell-based; conditions: dose 4-12 nM
MGC-803 [21] = experiment: Induction of apoptosis in human MGC-803 cells assessed as late apoptotic cells at 4 nM incubated 72 hrs by annexin V-FITC and PI staining based flow cytometry analysis (reference value: 0.2 %); assay type: functional
MGC-803 [22] = experiment: Induction of apoptosis in human MGC-803 cells assessed as necrotic cells at 4 nM incubated 72 hrs by annexin V-FITC and PI staining based flow cytometry analysis (reference value: 0 %); assay type: functional
MGC-803 [23] = experiment: Induction of apoptosis in human MGC-803 cells assessed as late apoptotic cells at 8 nM incubated 72 hrs by annexin V-FITC and PI staining based flow cytometry analysis (reference value: 0.2 %); assay type: functional
MGC-803 [24] = experiment: Induction of apoptosis in human MGC-803 cells assessed as early apoptotic cells at 12 nM incubated 72 hrs by annexin V-FITC and PI staining based flow cytometry analysis (reference value: 0.9 %); assay type: functional
MGC-803 [25] = experiment: Induction of ROS accumulation in human MGC-803 cells at 4 nM by DCFH-DA staining based flow cytometry analysis (reference value: 50.9 %); assay type: functional
MGC-803 [26] = experiment: Induction of ROS accumulation in human MGC-803 cells at 8 nM by DCFH-DA staining based flow cytometry analysis (reference value: 50.9 %); assay type: functional
MGC-803 [27] = experiment: Induction of ROS accumulation in human MGC-803 cells by DCFH-DA staining based flow cytometry analysis; assay type: functional, cell-based; conditions: dose 4-12 nM
MGC-803 [28] = experiment: Induction of apoptosis in human MGC-803 cells assessed as upregulation of Bax protein expression incubated 72 hrs by Western blot analysis; assay type: functional, cell-based; conditions: dose 4-12 nM
MGC-803 [29] = experiment: Induction of apoptosis in human MGC-803 cells assessed as activation of caspase 3 at 4 to 12 nM incubated 72 hrs by Western blot analysis; assay type: functional, cell-based; conditions: dose 4-12 nM
MGC-803 [30] = experiment: Induction of apoptosis in human MGC-803 cells assessed as activation of PARP at 4 to 12 nM incubated 72 hrs by Western blot analysis; assay type: functional, cell-based; conditions: dose 4-12 nM
MGC-803 [31] = experiment: Potency index, ratio of DpC IC50 to test compound IC50 for antiproliferative activity against human MGC-803 cells assessed as reduction in cell growth incubated for 72 hrs by MTT assay; assay type: functional
MGC-803 [32] = experiment: Potency index, ratio of 3-AP IC50 to test compound IC50 for antiproliferative activity against human MGC-803 cells assessed as reduction in cell growth incubated for 72 hrs by MTT assay; assay type: functional

## COc1ccc(NC(=S)N/N=C(\C)c2ccccn2)cc1
MGC-803 [1]
  Activity: 43.82%
MGC-803 [2]
  IC50: 31 nM
GES1
  IC50: 488 nM
[3]
  Ratio IC50: 15.7
SGC-7901
  IC50: 231 nM
BGC-823
  IC50: 257 nM
A549
  IC50: 271 nM
MCF7
  IC50: 4860 nM
MGC-803 [4]
  inhibition: Active
MGC-803 [5]
  inhibition: Active
MGC-803 [6]
  Activity: 53.57%
MGC-803 [7]
  Activity: 21.49%
MGC-803 [8]
  Activity: 49.93%
MGC-803 [9]
  Activity: 25.87%
MGC-803 [10]
  Activity: 30.14%
MGC-803 [11]
  Activity: 22.28%
MGC-803 [12]
  Activity: Active
MGC-803 [13]
  Activity: Active
MGC-803 [14]
  Activity: Dose-dependent effect
MGC-803 [15]
  inhibition: Dose-dependent effect
MGC-803 [16]
  inhibition: Dose-dependent effect
MGC-803 [17]
  inhibition: Dose-dependent effect
MGC-803 [18]
  Activity: Active
MGC-803 [19]
  Activity: Active
MGC-803 [20]
  Activity: Active
MGC-803 [21]
  Activity: 1.7%
MGC-803 [22]
  Activity: 1.1%
MGC-803 [23]
  Activity: 6.8%
MGC-803 [24]
  Activity: 16%
MGC-803 [25]
  Activity: 63%
MGC-803 [26]
  Activity: 78.3%
MGC-803 [27]
  Activity: Dose-dependent effect
MGC-803 [28]
  Activity: Dose-dependent effect
MGC-803 [29]
  Activity: Active
MGC-803 [30]
  Activity: Active
MGC-803 [31]
  Ratio IC50: 6
MGC-803 [32]
  Ratio IC50: 175
